Laboratory results: PubChem BioAssay AID1259407 (Chemical Carcinogenesis Research Information System (CCRIS), 2018)
Calls of active or inactive are those of the source. The rule behind the calls is not given here.

System: CCRIS mutagenicity, Ames/micronucleus/aberration tests
Experiment: CCRIS mutagenicity studies
[1] = Test System: AMES SALMONELLA TYPHIMURIUM, Strain/Indicator: TA97, Metabolic Activation: NONE, Method: PREINCUBATION
[2] = Test System: AMES SALMONELLA TYPHIMURIUM, Strain/Indicator: TA98, Metabolic Activation: NONE, Method: PREINCUBATION
[3] = Test System: AMES SALMONELLA TYPHIMURIUM, Strain/Indicator: TA100, Metabolic Activation: NONE, Method: PREINCUBATION
[4] = Test System: AMES SALMONELLA TYPHIMURIUM, Strain/Indicator: TA100, Metabolic Activation: RAT, LIVER, S-9, PCB, Method: PREINCUBATION
[5] = Test System: AMES SALMONELLA TYPHIMURIUM, Strain/Indicator: TA102, Metabolic Activation: NONE, Method: PREINCUBATION
[6] = Test System: AMES SALMONELLA TYPHIMURIUM, Strain/Indicator: TA100, Metabolic Activation: RAT, LIVER, S-9, AROCLOR 1254, Method: PREINCUBATION

## COc1ccc(O)c(C(C)(C)C)c1
[1]
  mutagenic call: inactive; negative
Test System: AMES SALMONELLA TYPHIMURIUM, Strain/Indicator: TA97, Metabolic Activation: RAT, LIVER, S-9, PCB, Method: PREINCUBATION
  mutagenic call: inactive; negative
[2]
  mutagenic call: inactive; negative
Test System: AMES SALMONELLA TYPHIMURIUM, Strain/Indicator: TA98, Metabolic Activation: RAT, LIVER, S-9, PCB, Method: PREINCUBATION
  mutagenic call: inactive; negative
[3]
  mutagenic call: inactive; negative
[4]
  mutagenic call: inactive; negative
[5]
  mutagenic call: inactive; negative
Test System: AMES SALMONELLA TYPHIMURIUM, Strain/Indicator: TA102, Metabolic Activation: RAT, LIVER, S-9, PCB, Method: PREINCUBATION
  mutagenic call: inactive; negative

## CC(=O)CN(CC(C)=O)N=O
Test System: AMES SALMONELLA TYPHIMURIUM, Strain/Indicator: TA100, Metabolic Activation: HAMSTER, LIVER, S-9, 3-METHYLCHOLANTHRENE, Method: PREINCUBATION
  mutagenic call: active; positive
Test System: AMES SALMONELLA TYPHIMURIUM, Strain/Indicator: TA100, Metabolic Activation: HAMSTER, LIVER, S-9, PHENOBARBITAL, Method: PREINCUBATION
  mutagenic call: active; positive
Test System: AMES SALMONELLA TYPHIMURIUM, Strain/Indicator: TA100, Metabolic Activation: HAMSTER, LIVER, S-9, Method: PREINCUBATION
  mutagenic call: active; positive
Test System: AMES SALMONELLA TYPHIMURIUM, Strain/Indicator: TA100, Metabolic Activation: HUMAN, LIVER, S-9, Method: PREINCUBATION
  mutagenic call: active; positive
Test System: AMES SALMONELLA TYPHIMURIUM, Strain/Indicator: TA100, Metabolic Activation: MONKEY, LIVER, S-9, Method: PREINCUBATION
  mutagenic call: active; positive
Test System: AMES SALMONELLA TYPHIMURIUM, Strain/Indicator: TA100, Metabolic Activation: MOUSE, LIVER, S-9, 3-METHYLCHOLANTHRENE, Method: PREINCUBATION
  mutagenic call: active; positive
Test System: AMES SALMONELLA TYPHIMURIUM, Strain/Indicator: TA100, Metabolic Activation: MOUSE, LIVER, S-9, PHENOBARBITAL, Method: PREINCUBATION
  mutagenic call: active; positive
Test System: AMES SALMONELLA TYPHIMURIUM, Strain/Indicator: TA100, Metabolic Activation: MOUSE, LIVER, S-9, Method: PREINCUBATION
  mutagenic call: active; positive
[3]
  mutagenic call: inactive; negative
Test System: AMES SALMONELLA TYPHIMURIUM, Strain/Indicator: TA100, Metabolic Activation: RABBIT, LIVER, S-9, Method: PREINCUBATION
  mutagenic call: active; positive
Test System: AMES SALMONELLA TYPHIMURIUM, Strain/Indicator: TA100, Metabolic Activation: RAT, LIVER, CYTOSOL, PCB, Method: PREINCUBATION
  mutagenic call: active; positive
Test System: AMES SALMONELLA TYPHIMURIUM, Strain/Indicator: TA100, Metabolic Activation: RAT, LIVER, MICROSOMES AND CYTOSOL, PCB, Method: PREINCUBATION
  mutagenic call: active; positive
Test System: AMES SALMONELLA TYPHIMURIUM, Strain/Indicator: TA100, Metabolic Activation: RAT, LIVER, MICROSOMES AND G6PDH, PCB, Method: PREINCUBATION
  mutagenic call: active; positive
Test System: AMES SALMONELLA TYPHIMURIUM, Strain/Indicator: TA100, Metabolic Activation: RAT, LIVER, MICROSOMES, PCB, Method: PREINCUBATION
  mutagenic call: active; positive
Test System: AMES SALMONELLA TYPHIMURIUM, Strain/Indicator: TA100, Metabolic Activation: RAT, LIVER, S-9 (HEATED), PCB, Method: PREINCUBATION
  mutagenic call: active; positive
Test System: AMES SALMONELLA TYPHIMURIUM, Strain/Indicator: TA100, Metabolic Activation: RAT, LIVER, S-9, 3-METHYLCHOLANTHRENE, Method: PREINCUBATION
  mutagenic call: active; positive
[6]
  mutagenic call: active; positive
Test System: AMES SALMONELLA TYPHIMURIUM, Strain/Indicator: TA100, Metabolic Activation: RAT, LIVER, S-9, N-BENZYLIMIDAZOLE, Method: PREINCUBATION
  mutagenic call: active; positive
[4]
  mutagenic call: active; positive
Test System: AMES SALMONELLA TYPHIMURIUM, Strain/Indicator: TA100, Metabolic Activation: RAT, LIVER, S-9, PHENOBARBITAL, Method: PREINCUBATION
  mutagenic call: active; positive
Test System: AMES SALMONELLA TYPHIMURIUM, Strain/Indicator: TA100, Metabolic Activation: RAT, LIVER, S-9, Method: PREINCUBATION
  mutagenic call: active; positive
Test System: AMES SALMONELLA TYPHIMURIUM, Strain/Indicator: TA100, Metabolic Activation: RAT, LIVER, S-9 WITHOUT NADP+, PCB, Method: PREINCUBATION
  mutagenic call: active; positive
Test System: AMES SALMONELLA TYPHIMURIUM, Strain/Indicator: TA100, Method: PREINCUBATION
  mutagenic call: active; positive
Test System: AMES SALMONELLA TYPHIMURIUM, Strain/Indicator: TA104, Metabolic Activation: RAT, LIVER, S-9, AROCLOR 1254, Method: PREINCUBATION
  mutagenic call: inactive; negative
Test System: AMES SALMONELLA TYPHIMURIUM, Strain/Indicator: TA1535, Metabolic Activation: RAT, LIVER, S-9, AROCLOR 1254, Method: PREINCUBATION
  mutagenic call: active; positive
Test System: AMES SALMONELLA TYPHIMURIUM, Strain/Indicator: TA1975, Metabolic Activation: RAT, LIVER, S-9, AROCLOR 1254, Method: PREINCUBATION
  mutagenic call: active; positive
Test System: CHINESE HAMSTER V-79, Strain/Indicator: V-79/6-THIOGUANINE, Metabolic Activation: HAMSTER, PANCREAS, DUCT CELL-MEDIATED, Method: STANDARD PLATE
  mutagenic call: active; positive
Test System: CHINESE HAMSTER V-79, Strain/Indicator: V-79/OUABAIN, Metabolic Activation: HAMSTER, HEPATOCYTES, Method: CELL-MEDIATED
  mutagenic call: active; positive
Test System: CHINESE HAMSTER V-79, Strain/Indicator: V-79/OUABAIN, Metabolic Activation: HAMSTER, PANCREAS, ACINAR CELL-MEDIATED, Method: STANDARD PLATE
  mutagenic call: active; positive

## Nc1ccc(-c2ccc(N)c(F)c2)cc1F
Test System: AMES SALMONELLA TYPHIMURIUM, Strain/Indicator: TA98(1,8-DNP6), Metabolic Activation: HAMSTER, LIVER, S-9, Method: PREINCUBATION
  mutagenic call: active; positive
Test System: AMES SALMONELLA TYPHIMURIUM, Strain/Indicator: TA98(1,8-DNP6), Metabolic Activation: NONE, Method: PREINCUBATION
  mutagenic call: active; positive
Test System: AMES SALMONELLA TYPHIMURIUM, Strain/Indicator: TA98(1,8-DNP6), Metabolic Activation: NONE, Method: STANDARD PLATE
  mutagenic call: active; positive
Test System: AMES SALMONELLA TYPHIMURIUM, Strain/Indicator: TA98(1,8-DNP6), Metabolic Activation: S-9, Method: STANDARD PLATE
  mutagenic call: active; positive
Test System: AMES SALMONELLA TYPHIMURIUM, Strain/Indicator: TA98, Metabolic Activation: HAMSTER, LIVER, S-9, Method: PREINCUBATION
  mutagenic call: active; positive
[2]
  mutagenic call: active; positive
Test System: AMES SALMONELLA TYPHIMURIUM, Strain/Indicator: TA98, Metabolic Activation: NONE, Method: STANDARD PLATE
  mutagenic call: active; positive
Test System: AMES SALMONELLA TYPHIMURIUM, Strain/Indicator: TA98, Metabolic Activation: S-9, Method: STANDARD PLATE
  mutagenic call: active; positive
Test System: AMES SALMONELLA TYPHIMURIUM, Strain/Indicator: TA100, Metabolic Activation: NONE, Method: STANDARD PLATE
  mutagenic call: inactive; negative
Test System: AMES SALMONELLA TYPHIMURIUM, Strain/Indicator: TA100, Metabolic Activation: S-9, Method: STANDARD PLATE
  mutagenic call: active; positive

## COc1ccc2c3c([nH]c2c1)C(C)=NCC3
[1]
  mutagenic call: inactive; negative
Test System: AMES SALMONELLA TYPHIMURIUM, Strain/Indicator: TA97, Metabolic Activation: RAT, LIVER, S-9, AROCLOR 1254, Method: PREINCUBATION
  mutagenic call: inactive; negative
[2]
  mutagenic call: inactive; negative
Test System: AMES SALMONELLA TYPHIMURIUM, Strain/Indicator: TA98, Metabolic Activation: RAT, LIVER, S-9, AROCLOR 1254, Method: PREINCUBATION
  mutagenic call: inactive; negative
[3]
  mutagenic call: inactive; negative
[6]
  mutagenic call: inactive; negative
[5]
  mutagenic call: inactive; negative
Test System: AMES SALMONELLA TYPHIMURIUM, Strain/Indicator: TA102, Metabolic Activation: RAT, LIVER, S-9, AROCLOR 1254, Method: PREINCUBATION
  mutagenic call: inactive; negative
